How the values were obtained:
Type in all cases: in vivo
[1] = system: sorghum; experiment: Herbicidal activity test against upland field weeds (foliar treatment test); set-up: key to Foliar treatment herbicidal activity, Sorghum: 0 (no control); 100 (complete control); conditions: 50 g ai/ha, scale 0-100
Protocol: (§1) Experimental Example 1: Herbicidal Activity Test Against Upland Field Weeds (Foliar Treatment Test) Foliar treatment was performed as follows: After filling a square plastic pot having a surface area of 350 cm^2 with horticultural soil, seeds (10˜15 grains) or rootstocks (2 pieces) of 5 kinds of grassy weeds of sorghum, barnyard grass, quack grass, crabgrass, fall panicum, and 5 kinds of broadleaf weeds of black nightshade, indian jointvetch, velvetleaf, cocklebur, bindweed, which had been stored in a low temperature (6° C.), were sown. After growing for a certain period in greenhouse conditions (average temperature 30±5° C., light/dark=14/10 hours), test compound solutions were made by diluting with a preparation solution (including 50% acetone, 0.1% Tween-20) so that the final treatment amount of the test compounds was 50 or 75 g a.i./ha. The prepared test compound solution was used for treating foliage by hand-spraying 14 mL per pot in a fume hood. After the treatment, it was managed under the same greenhouse conditions as above, and after 14 days (after 21 days if necessary), the external symptoms and efficacy were investigated according to the scale of 0 (no control) to 100 (complete control). The results of Table 7 were obtained by evaluating weed control value to the untreated control by conducting visual assessment.

[2] = system: barnyard grass; experiment: as above; set-up: key to Foliar treatment herbicidal activity, barnyard grass: 0 (no control); 100 (complete control); conditions: 50 g ai/ha, scale 0-100; for pest or weed control at 50 g/ha: Echinochloa crus-galli
Protocol: as §1

[3] = system: quack grass; experiment: as above; set-up: key to Foliar treatment herbicidal activity, quack grass: 0 (no control); 100 (complete control); conditions: 50 g ai/ha, scale 0-100
Protocol: as §1

[4] = system: crabgrass; experiment: as above; set-up: key to Foliar treatment herbicidal activity, Crabgrass: 0 (no control); 100 (complete control); conditions: 50 g ai/ha, scale 0-100
Protocol: as §1

[5] = system: fall panicum; experiment: as above; set-up: key to Foliar treatment herbicidal activity, Fall panicum: 0 (no control); 100 (complete control); conditions: 50 g ai/ha, scale 0-100; for pest or weed control at 50 g/ha: Panicum dichotomiflorum
Protocol: as §1

[6] = system: black nightshade; experiment: as above; set-up: key to Foliar treatment herbicidal activity, black nightshade: 0 (no control); 100 (complete control); conditions: 50 g ai/ha, scale 0-100; for pest or weed control at 50 g/ha: Solanum nigrum
Protocol: as §1

[7] = system: indian jointvetch; experiment: as above; set-up: key to Foliar treatment herbicidal activity, Indian jointvetch: 0 (no control); 100 (complete control); conditions: 50 g ai/ha, scale 0-100
Protocol: as §1

[8] = system: velvetleaf; experiment: as above; set-up: key to Foliar treatment herbicidal activity, velvet leaf: 0 (no control); 100 (complete control); conditions: 50 g ai/ha; for pest or weed control at 50 g/ha: Abutilon theophrasti, scale 0-100, read-out: Foliar treatment herbicidal activity, velvet leaf
Protocol: as §1

[9] = system: cocklebur; experiment: as above; set-up: key to Foliar treatment herbicidal activity, Cocklebur: 0 (no control); 100 (complete control); conditions: 50 g ai/ha, scale 0-100; for pest or weed control at 50 g/ha: Xanthium strumarium
Protocol: as §1

[10] = system: bindweed; experiment: as above; set-up: key to Foliar treatment herbicidal activity, Bindweed: 0 (no control); 100 (complete control); conditions: 50 g ai/ha, scale 0-100
Protocol: as §1

[11] = system: corn; experiment: Phytotoxicity test for upland field crops (foliar treatment test); set-up: key: 0 (no harm); 9 (complete withered)
Protocol: (§2) Experimental Example 3: Phytotoxicity Test for Upland Field Crops (Foliar Treatment Test)
(§3) Foliar treatment was performed for grown crops and weeds in a square plastic pot having a surface area of 50 cm^2 filled with horticultural soil. As a fertilizer per pot, 0.5 g of horticultural mixed fertilizer (N:P:K=17:21:17) was treated by mixing in the upper soil. Five kinds of crops such as rice, wheat, corn, soybean, and cotton were sown in each pot, and after growing for a certain period in greenhouse conditions (average temperature 30±5° C., light/dark=14/10 hours), test compound solutions were made by diluting with the diluent (33% acetone, 0.1% Tween-20) so that the final treatment amount of the test compounds was 19˜300 g a.i./ha. The prepared test compound solutions were treated using a spray booth (SB6-016) at a treatment amount of 100 ml per 1 m^2 of treatment area. The treated plants were managed under the same greenhouse conditions as above, and external symptoms and phytotoxicity were investigated 7 and 14 days after treatment (after 21 days if necessary). In the evaluation of the phytotoxicity for the crop, the grade of 0 (no harm) to 9 (complete withered) was used. The results of Table 9 were obtained by evaluating crop phytotoxicity value to the untreated control.

[12] = system: cotton; experiment: as above; set-up: key: 0 (no harm); 9 (complete withered)
Protocol: as §2, §3

[13] = system: rice; experiment: as above; set-up: key: 0 (no harm); 9 (complete withered)
Protocol: as §2, §3

[14] = system: soybean; experiment: as above; set-up: key: 0 (no harm); 9 (complete withered)
Protocol: as §2, §3

[15] = system: wheat; experiment: as above; set-up: key: 0 (no harm); 9 (complete withered)
Protocol: as §2, §3

[16] = 50 g ai/ha, Corn (7 days after treatment)
[17] = 50 g ai/ha, Corn (14 days after treatment)
[18] = 100 g ai/ha, Corn (7 days after treatment)
[19] = 100 g ai/ha, Corn (14 days after treatment)
[20] = 50 g ai/ha, Cotton (7 days after treatment)
[21] = 50 g ai/ha, Cotton (14 days after treatment)
[22] = 100 g ai/ha, Cotton (7 days after treatment)
[23] = 100 g ai/ha, Cotton (14 days after treatment)
[24] = 50 g ai/ha, Rice (7 days after treatment)
[25] = 50 g ai/ha, Rice (14 days after treatment)
[26] = 100 g ai/ha, Rice (7 days after treatment)
[27] = 100 g ai/ha, Rice (14 days after treatment)
[28] = 50 g ai/ha, Soybean (7 days after treatment)
[29] = 50 g ai/ha, Soybean (14 days after treatment)
[30] = 100 g ai/ha, Soybean (7 days after treatment)
[31] = 100 g ai/ha, Soybean (14 days after treatment)
[32] = 50 g ai/ha, Wheat (7 days after treatment)
[33] = 50 g ai/ha, Wheat (14 days after treatment)
[34] = 100 g ai/ha, Wheat (7 days after treatment)
[35] = 100 g ai/ha, Wheat (14 days after treatment)

Cn1nnnc1COc1nc(C(F)(F)F)ccc1C(=O)Nc1nnnn1C(F)F [Compound No. 1-4, N-(1-(difluoromethyl)-1H-tetrazol-5-yl)-2-((1-methyl-1H-tetrazol-5-yl)methoxy)-6-(trifluoromethyl)nicotinamide]
Foliar treatment herbicidal activity, Sorghum [1]: 0 | Foliar treatment herbicidal activity, barnyard grass [2]: 0 | Foliar treatment herbicidal activity, quack grass [3]: 0 | Foliar treatment herbicidal activity, Crabgrass [4]: 0 | Foliar treatment herbicidal activity, Fall panicum [5]: 0 | pest or weed control at 50 g/ha [6]: 80% | pest or weed control at 50 g/ha [7]: 20% | pest or weed control at 50 g/ha [8]: 20% | pest or weed control at 50 g/ha [9]: 60% | pest or weed control at 50 g/ha [10]: 20%

Cn1nnnc1NC(=O)c1ccc(C(F)(F)F)nc1COc1nnnn1C [Compound No. 1-115, N-(1-methyl-1H-tetrazol-5-yl)-2-(((1-methyl-1H-tetrazol-5-yl)oxy)methyl)-6-(trifluoromethyl)nicotinamide]
Foliar treatment herbicidal activity, Sorghum [1]: 0 | pest or weed control at 50 g/ha [2]: 30% | Foliar treatment herbicidal activity, quack grass [3]: 0 | Foliar treatment herbicidal activity, Crabgrass [4]: 0 | Foliar treatment herbicidal activity, Fall panicum [5]: 0 | pest or weed control at 50 g/ha [6]: 95% | pest or weed control at 50 g/ha [7]: 40% | pest or weed control at 50 g/ha [8]: 40% | pest or weed control at 50 g/ha [9]: 80% | pest or weed control at 50 g/ha [10]: 80%

CCN(Cc1nnn(C)n1)Cc1nc(C(F)(F)F)ccc1C(=O)Nc1nnnn1C [Compound No. 2-94, 2-((ethyl((2-methyl-2H-tetrazol-5-yl)methyl)amino)methyl)-N-(1-methyl-1H-tetrazol-5-yl)-6-(trifluoromethyl)nicotinamide]
Foliar treatment herbicidal activity, Sorghum [1]: 0 | Foliar treatment herbicidal activity, barnyard grass [2]: 0 | Foliar treatment herbicidal activity, quack grass [3]: 0 | Foliar treatment herbicidal activity, Crabgrass [4]: 0 | Foliar treatment herbicidal activity, Fall panicum [5]: 0 | Foliar treatment herbicidal activity, black nightshade [6]: 100 | pest or weed control at 50 g/ha [7]: 60% | pest or weed control at 50 g/ha [8]: 60% | pest or weed control at 50 g/ha [9]: 60% | pest or weed control at 50 g/ha [10]: 30%

Cn1nnc(CNc2nc(C(F)(F)F)ccc2C(=O)Nc2nnnn2C)n1 [Compound No. 2-32, N-(1-methyl-1H-tetrazol-5-yl)-2-(((2-methyl-2H-tetrazol-5-yl)methyl)amino)-6-(trifluoromethyl)nicotinamide]
Foliar treatment herbicidal activity, Sorghum [1]: 0 | Foliar treatment herbicidal activity, barnyard grass [2]: 0 | Foliar treatment herbicidal activity, quack grass [3]: 0 | Foliar treatment herbicidal activity, Crabgrass [4]: 0 | Foliar treatment herbicidal activity, Fall panicum [5]: 0 | pest or weed control at 50 g/ha [6]: 40% | Foliar treatment herbicidal activity, Indian jointvetch [7]: 0 | Foliar treatment herbicidal activity, velvet leaf ([8]; scale 0-100): 0 | Foliar treatment herbicidal activity, Cocklebur [9]: 0 | Foliar treatment herbicidal activity, Bindweed [10]: 0

CN(C)c1nc(COCc2nc(C(F)(F)F)ccc2C(=O)Nc2nnnn2C)nn1C [Compound No. 2-133, 2-(((5-(dimethylamino)-1-methyl-1H-1,2,4-triazol-3-yl)methoxy)methyl)-N-(1-methyl-1H-tetrazol-5-yl)-6-(trifluoromethyl)nicotinamide]
plant injury at 50 g/ha ([1]; Sorghum): 20% | pest or weed control at 50 g/ha [2]: 90% | Foliar treatment herbicidal activity, quack grass [3]: 0 | pest or weed control at 50 g/ha ([4]; Digitaria sanguinalis): 98% | pest or weed control at 50 g/ha [5]: 80% | Foliar treatment herbicidal activity, black nightshade [6]: 100 | pest or weed control at 50 g/ha [7]: 95% | pest or weed control at 50 g/ha [8]: 80% | pest or weed control at 50 g/ha [9]: 95% | pest or weed control at 50 g/ha [10]: 90%

COC(=O)OC(C)N(C(=O)c1ccc(C(F)(F)F)nc1COCc1ncn(C)n1)c1nnnn1C (stereo not drawn) [Compound No. 4-1, methyl(1-(2-(((1-methyl-1H-1,2,4-triazol-3-yl)methoxy)methyl)-N-(1-methyl-1H-tetrazol-5-yl)-6-(trifluoromethyl)nicotinamido)ethyl)carbonate]
Foliar treatment phytotoxicity, Corn [11, 16]: 0 | Foliar treatment phytotoxicity, Corn [11, 17]: 0 | Foliar treatment phytotoxicity, Corn [11, 18]: 0 | Foliar treatment phytotoxicity, Corn [11, 19]: 0 | Foliar treatment phytotoxicity, Cotton [12, 20]: 3 | Foliar treatment phytotoxicity, Cotton [12, 21]: 8 | Foliar treatment phytotoxicity, Cotton [12, 22]: 3 | Foliar treatment phytotoxicity, Cotton [12, 23]: 8 | Foliar treatment phytotoxicity, Rice [13, 24]: 2 | Foliar treatment phytotoxicity, Rice [13, 25]: 6 | Foliar treatment phytotoxicity, Rice [13, 26]: 3 | Foliar treatment phytotoxicity, Rice [13, 27]: 7 | Foliar treatment phytotoxicity, Soybean [14, 28]: 4 | Foliar treatment phytotoxicity, Soybean [14, 29]: 6 | Foliar treatment phytotoxicity, Soybean [14, 30]: 4 | Foliar treatment phytotoxicity, Soybean [14, 31]: 8 | Foliar treatment phytotoxicity, Wheat [15, 32]: 0 | Foliar treatment phytotoxicity, Wheat [15, 33]: 0 | Foliar treatment phytotoxicity, Wheat [15, 34]: 0 | Foliar treatment phytotoxicity, Wheat [15, 35]: 0

Cn1nnnc1NC(=O)c1ccc(C(F)(F)F)nc1COCc1nnnn1C(F)F [Compound No. 1-85, 2-(((1-(difluoromethyl)-1H-tetrazol-5-yl)methoxy)methyl)-N-(1-methyl-1H-tetrazol-5-yl)-6-(trifluoromethyl)nicotinamide]
Foliar treatment herbicidal activity, Sorghum [1]: 0 | Foliar treatment herbicidal activity, barnyard grass [2]: 0 | Foliar treatment herbicidal activity, quack grass [3]: 0 | Foliar treatment herbicidal activity, Crabgrass [4]: 0 | pest or weed control at 50 g/ha [5]: 40% | pest or weed control at 50 g/ha [7]: 40% | pest or weed control at 50 g/ha [8]: 20% | pest or weed control at 50 g/ha [9]: 90% | pest or weed control at 50 g/ha [10]: 40%

Cn1nnnc1CSc1nc(C(F)(F)F)ccc1C(=S)Nc1nnnn1C [1-44]
Foliar treatment phytotoxicity, Corn [11, 16]: 5 | Foliar treatment phytotoxicity, Corn [11, 17]: 3 | Foliar treatment phytotoxicity, Corn [11, 18]: 5 | Foliar treatment phytotoxicity, Corn [11, 19]: 3 | Foliar treatment phytotoxicity, Cotton [12, 20]: 4 | Foliar treatment phytotoxicity, Cotton [12, 21]: 9 | Foliar treatment phytotoxicity, Cotton [12, 22]: 5 | Foliar treatment phytotoxicity, Cotton [12, 23]: 9 | Foliar treatment phytotoxicity, Rice [13, 24]: 6 | Foliar treatment phytotoxicity, Rice [13, 25]: 9 | Foliar treatment phytotoxicity, Rice [13, 26]: 6 | Foliar treatment phytotoxicity, Rice [13, 27]: 9 | Foliar treatment phytotoxicity, Soybean [14, 28]: 6 | Foliar treatment phytotoxicity, Soybean [14, 29]: 7 | Foliar treatment phytotoxicity, Soybean [14, 30]: 6 | Foliar treatment phytotoxicity, Soybean [14, 31]: 7 | Foliar treatment phytotoxicity, Wheat [15, 32]: 0 | Foliar treatment phytotoxicity, Wheat [15, 33]: 0 | Foliar treatment phytotoxicity, Wheat [15, 34]: 0 | Foliar treatment phytotoxicity, Wheat [15, 35]: 0
